# Assay results published in the supplement of paper PMC10307832.
# Tests used:
# Test in all cases: relative viability (nuclei count vs DMSO), 5 days (fraction); higher = more cells survive
# [1] = compound: C1CNCCC1C2=CC(=NN2)C3=CC=NC=C3 + CC(C)C[C@H](NC(=O)[C@H](Cc1ccccc1)NC(=O)c1cnccn1)B(O)O [Bortezomib] (partner 0.002 µM)
# Outline: (§1)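 Medians of duplicate plates are given as relative viability. That measure is the nuclei count in treated wells divided by the count in vehicle wells. Counts were taken on 4× images of lung cancer cell lines in 1536-well plates, 5 days after pin-tool dosing the day after seeding with one drug alone or a fixed anchor-drug dose plus five library-drug doses (not always all listed) in √10 steps.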
# [2] = compound: C1CNCCC1C2=CC(=NN2)C3=CC=NC=C3 + C[C@]1(O)C[C@@H](c2nc(-c3ccc4ccc(-c5ccccc5)nc4c3)c3c(N)nccn32)C1 [Linsitinib] (partner 1 µM)
# Outline: as §1
# Tanzisertib + Pemetrexed = compound: O[C@H]1CC[C@H](Nc2ncc3nc(Nc4c(F)cc(F)cc4F)n([C@H]4CCOC4)c3n2)CC1 [Tanzisertib] + Nc1nc2[nH]cc(CCc3ccc(C(=O)N[C@@H](CCC(=O)O)C(=O)O)cc3)c2c(=O)[nH]1 [Pemetrexed] (partner 0.2 µM)
# Outline: as §1
# [3] = compound: C[C@@H](N)c1ccc(C(=O)Nc2ccnc3[nH]ccc23)cc1 + CC(=O)c1c(C)c2cnc(Nc3ccc(N4CCNCC4)cn3)nc2n(C2CCCC2)c1=O [Palbociclib] (partner 0.5 µM)
# Outline: as §1
Cell Line,relative viability ([1]; first compound 0.08 µM),relative viability ([1]; first compound 0.8 µM),relative viability ([1]; first compound 2.53 µM),relative viability ([1]; first compound 8 µM),relative viability ([2]; first compound 0.08 µM),relative viability ([2]; first compound 0.8 µM),relative viability ([2]; first compound 2.53 µM),relative viability ([2]; first compound 8 µM),relative viability (Tanzisertib + Pemetrexed; first compound 0.08 µM),relative viability (Tanzisertib + Pemetrexed; first compound 0.253 µM),relative viability (Tanzisertib + Pemetrexed; first compound 0.8 µM),relative viability (Tanzisertib + Pemetrexed; first compound 2.53 µM),relative viability (Tanzisertib + Pemetrexed; first compound 8 µM),relative viability ([3]; first compound 0.04 µM),relative viability ([3]; first compound 0.1265 µM),relative viability ([3]; first compound 0.4 µM),relative viability ([3]; first compound 1.265 µM),relative viability ([3]; first compound 4 µM)
NCI-H1355,1.23,1.22,1.27,1.26,0.868,0.71,0.891,0.797,1.07,1.06,1.05,1.07,1.03,0.441,0.422,0.403,0.427,0.393
EKVX,1.21,0.585,1.07,1.04,1.06,0.865,1.13,0.984,0.467,0.341,0.41,0.34,0.337,0.413,0.415,0.432,0.38,0.28
NCI-H441,,0.764,0.609,0.269,0.65,0.361,0.753,0.497,0.27,0.241,0.286,0.24,0.27,0.233,0.265,0.25,0.237,0.263
NCI-H1975,0.396,0.423,0.479,0.369,0.952,1.14,0.917,0.97,0.304,0.294,0.267,0.317,0.254,0.808,0.673,0.607,0.2,0.321
HCC-78,0.439,0.405,0.467,0.619,0.446,,0.513,0.61,0.965,0.901,0.915,0.882,0.934,0.456,0.45,0.544,,0.482
NCI-H2085,0.975,0.736,1.11,1.03,0.975,0.732,1.1,0.95,,0.934,0.942,0.841,0.765,0.454,0.452,0.402,0.373,0.406
H3255,0.826,0.835,1.41,0.741,0.858,1.13,0.957,0.993,0.555,0.528,0.525,0.526,0.441,0.299,0.298,0.298,0.336,0.286
NCI-H2087,0.866,1.01,0.728,0.763,1.04,1.09,0.973,0.96,0.702,0.661,0.668,0.691,0.706,0.24,0.263,0.299,0.254,0.28
LC-2-ad,1.07,1.52,0.994,0.944,0.805,0.825,0.909,0.869,0.282,0.292,0.275,0.272,0.294,0.472,0.53,0.458,0.413,0.411
PC-3 [JPC-3],0.845,0.814,0.811,0.793,0.913,0.975,0.936,0.896,1.16,1.3,1.23,1.04,0.466,0.544,0.516,0.53,0.551,0.575
EBC-1,0.694,0.575,0.591,0.55,0.899,0.938,1.09,0.949,,,,,,,,,,
HCC-15,0.991,1.23,0.994,0.938,0.809,0.903,0.937,0.905,0.228,0.208,0.199,0.207,0.21,0.705,0.704,0.704,0.694,0.674
NCI-H1563,0.744,0.853,0.917,0.977,0.868,1.13,1.24,1.25,0.829,0.935,0.761,0.711,0.619,,,,,
COR-L 105,0.737,0.746,1.01,0.851,0.986,0.896,0.965,0.926,1.4,1.12,1.14,1.28,0.884,0.377,0.399,0.424,0.348,0.371
NCI-H520,0.365,0.558,0.559,0.573,0.883,1.04,0.867,0.912,0.589,0.714,0.67,0.561,0.642,0.218,0.231,0.263,0.254,0.225
LU99A,1.1,1.26,1.35,1.08,0.53,0.579,0.551,0.513,0.167,0.191,0.172,0.159,0.19,,0.372,0.387,0.343,0.275
NCI-H1666,0.865,0.724,0.959,0.962,0.758,0.748,0.862,0.814,0.894,0.789,0.865,0.941,0.796,0.661,0.63,0.636,0.616,0.668
NCI-H2170,,,,,,,,,0.265,0.292,0.282,0.265,0.251,0.423,0.412,0.423,0.417,0.395
NCI-H522,,,,,,,,,1.04,1.07,0.915,1.07,1.05,1.03,0.986,1.1,1.02,0.874
LCLC-97TM1,0.668,0.666,0.796,0.444,0.142,0.183,0.201,0.211,0.172,0.164,0.146,0.169,0.173,0.276,0.217,0.341,0.257,0.309
NCI-H1299,1.02,1.01,1.02,0.999,0.987,1.14,1.05,0.924,,,,,,,,,,
NCI-H3122,0.989,1.04,1.04,0.965,0.981,0.981,1.06,1.04,0.2,0.192,0.193,0.19,0.188,0.221,0.188,0.23,0.243,0.221

Cell Line,relative viability ([1]; first compound 0.08 µM),relative viability ([1]; first compound 0.8 µM),relative viability ([1]; first compound 2.53 µM),relative viability ([1]; first compound 8 µM),relative viability ([2]; first compound 0.08 µM),relative viability ([2]; first compound 0.8 µM),relative viability ([2]; first compound 2.53 µM),relative viability ([2]; first compound 8 µM),relative viability (Tanzisertib + Pemetrexed; first compound 0.08 µM),relative viability (Tanzisertib + Pemetrexed; first compound 0.253 µM),relative viability (Tanzisertib + Pemetrexed; first compound 0.8 µM),relative viability (Tanzisertib + Pemetrexed; first compound 2.53 µM),relative viability (Tanzisertib + Pemetrexed; first compound 8 µM),relative viability ([3]; first compound 0.04 µM),relative viability ([3]; first compound 0.1265 µM),relative viability ([3]; first compound 0.4 µM),relative viability ([3]; first compound 1.265 µM),relative viability ([3]; first compound 4 µM)
NCI-H1395,,,,,1.02,0.886,1.24,0.977,0.868,0.88,0.971,0.939,0.788,0.583,0.639,0.597,,0.577
NCI-H2009,1.04,0.989,1.09,0.99,1.2,1.18,1.25,1.22,1.01,1.03,0.957,1.04,1.1,0.194,0.2,0.213,0.153,0.154
NCI-H1651,0.907,0.923,1.02,0.949,0.923,0.977,0.966,1.14,0.586,0.625,0.436,0.6,0.513,0.509,0.567,0.554,0.601,0.567
HARA,1,1.28,1.1,1.15,0.938,1.07,0.983,0.939,0.282,0.275,0.282,0.24,0.245,0.292,0.271,0.28,0.214,0.248
NCI-H1944,,,,,1.14,1.08,1.25,1.1,0.733,0.589,0.686,0.678,0.554,0.37,0.334,0.351,0.387,0.266
NCI-H2347,0.937,0.951,1.05,0.969,0.916,0.961,1.06,0.936,0.454,0.468,0.435,0.408,0.442,0.422,0.443,0.41,0.483,0.463
Calu-6,0.873,1.13,1.17,1.09,0.877,0.941,0.994,0.884,,,,,,,,,,
NCI-H1703,0.502,0.334,0.351,0.366,0.79,0.858,0.928,0.852,,,,,,,,,,
NCI-H1650,0.212,0.184,0.214,0.204,,,,,0.349,0.351,0.511,0.33,0.329,0.384,0.369,0.319,0.294,0.344
NCI-H727,0.842,0.829,1.14,0.911,0.362,0.338,0.294,0.21,,,,,,0.667,0.714,0.746,0.748,0.798
NCI-H2342,,,,,,,,,0.867,0.749,0.768,0.708,0.668,0.513,0.53,0.596,0.498,0.532
ChaGo-K-1,0.991,1.31,1.02,0.984,,,,,0.251,0.25,0.242,0.261,0.274,0.923,0.908,0.947,0.893,0.865
SW 900,,,,,,,,,,0.51,0.501,0.451,0.464,0.564,0.607,0.547,0.581,0.611
ABC-1,0.329,0.253,0.332,0.351,0.702,0.644,0.685,1.01,,,,,,0.662,0.775,0.789,0.976,0.552
NCI-H1648,,,,,,,,,0.689,0.698,0.775,0.754,0.735,0.267,0.34,0.279,0.371,0.414
LK-2,,,,,,0.751,0.427,0.519,0.294,0.273,0.161,0.234,0.244,0.826,0.7,0.655,0.485,0.912
NCI-H596,1,1.06,1.12,1.16,0.894,1.12,1.03,1.03,0.506,0.538,0.515,0.516,0.467,,,,,
SK-MES-1,,,,,1.07,1.1,1.15,0.953,0.971,0.887,0.962,0.982,0.737,0.312,0.365,0.306,0.337,0.271
NCI-H1793,,,,,0.67,0.669,0.922,0.876,1.07,0.914,0.976,0.766,0.828,0.348,0.295,0.355,,0.385
IA-LM,0.911,0.934,1.08,0.864,0.717,0.893,0.958,0.621,,,,,,,,,,
A549,,,,,0.509,0.556,0.696,0.729,,,,,,,,,,
NCI-H358,,,,,0.595,0.792,0.688,0.765,0.165,0.176,0.171,0.163,0.179,0.145,0.134,0.141,0.133,0.145
